Reference: patent US20220127297A1, “Novel Antibacterial 3"-Derivatives Of 4,6-Disubstituted 2,5-Dideoxystreptamine Aminoglycoside Antibiotics” (AGILeBiotics B.V., priority 2018, published 2022)
≈ marks a conversion by molar mass, not a printed value.

What was measured:
E. coli (APH(3′)IIIa) = assay: MIC 50, broth micro-dilution, E. coli expressing APH(3′)IIIa; type: cell-based, Escherichia coli
Description: (§1) Plasmid transformation. Approximately 500 ng of the pET-9b(+) (Cat. No. 69432-3, Merck), pAT21-1 (provided by Prof. Dr. Patrice Courvalin, M.D., Pasteur Institute, France; prepared according to Trieu-Cuot et. al, Mol. Gen. Genet. 198(2), 348 (1985)), pBluescript::AAC(6′)-Ie/APH(2″)-Ia (provided by Prof. Dr. Sergei Vakulenko, M.D., University of Notre Dame, Ind., USA; prepared according to S. B. Vakulenko et. al., J. Biol. Chem. 287 (52), 43262 (2012)), pBlue_lpp_aacC3_rrnC and pSET152 (Cat. No. PVT3395, Life Science Market; prepared according to Bierman et al., Gene 116 (1), 43 (1992)) plasmids, encoding APH(3′)-Ia (SEQ ID NO:2), APH(3′)-IIIa (SEQ ID NO:3), AAC(6′)Ie-APH(2″)-Ia (SEQ ID NO:4), AAC(3)-III (SEQ ID NO:1), and AAC(3)-IV (SEQ ID NO:5) respectively, were individually incubated in a vial of competent cells for 15 min on ice. The cells were subsequently heated to 42° C. for 90 s, and cooled on ice for 1 min. After addition of 900 μL LB, the cells were incubated for 1 h at 37° C. and 200 rpm. Cells were plated on LB-agar supplemented with 50 μg/mL KanaA and incubated for 18 h at 37° C. The next day, a single colony was inoculated in 5 mL LB supplemented with 50 μg/mL and grown for 18 h at 37° C. and 200 rpm. A 200 μL sample of each culture was diluted with 200 μL of 40% v/v glycerol in water, and stored at −80° C. The plasmid was purified from the remaining culture using the Plasmid Miniprep kit. Plasmid DNA was investigated by Eurofins Genomics (Germany) to confirm the identity of the aminoglycoside resistance genes.
(§2) 3.1 Against E. coli Strains
(§3) Tested reference compounds. Amikacin sulfate (Cat. No. 01693, Chem-Impex), Gentamicin sulfate (Cat. No. G4918, Sigma Aldrich).
(§4) Microbial strains. E. coli ATCC 25922, E. coli ATCC 25922/pET-9b(+), E. coli ATCC 25922/pAT21-1, E. coli ATCC 25922/pBluescript::AAC(6′)-Ie/APH(2″)-Ia, E. coli ATCC 25922/pBlue_lpp_aacC3_rrnC, E. coli ATCC 25922/pSET152.
(§5) Culture media and equipment. BBL™ Mueller Hinton Broth 2 (Lot. BCBW1143, Cat. No. 70192, Sigma); Kanamycin A (Cat. No. A1493, AppliChem); 96-well deep well plate, 1 mL (Cat. No. 0030506.200, Eppendorf); Plate lids (Cat. No. 0030131.525, Eppendorf); 96-well plate, F-bottom (Cat. No. 781602, Brand; Incubator, Infors Multitron Pro); Laminar flow (Heraeus KS12); UV/VIS meter (Eppendorf BioPhotometer Plus); Platereader (Tecan Sunrise).
(§6) Compound preparation. Compounds were prepared in MH2 media at a concentration of 5 mM and stored at 4° C. For testing, solutions of 128 μM were prepared in MH2. Out of these working solutions, 400 μL was transferred to wells in the first column of 96-well deep well plates. Each compound was transferred in triplicate. Plates were previously filled with 200 μL of MH2 media in all wells except for the wells in the first column. After compound and antibiotic addition, the compounds were serial two-fold diluted by transferring 200 μL from the first to the second column, then from the second to the third column and so on. Finally, 200 μL was removed from the last column.
Inoculum preparation. Microorganisms used were all revived from 20% glycerol (40% v/v glycerol in water was diluted with MH2) storage at −80° C. by inoculating them in 5 mL MH2. inoculums of E. coli containing a plasmid were selected for by adding 50 μg/mL KanaA. The Inoculums were grown to an optical density (measured by UV/Vis spectroscopy) of 0.6-0.8 at 600 nm. Out of these suspensions, actual inoculums were prepared by diluting them to an optical density (OD) of 0.1 in MH2 media. From these inoculums, 200 μL was transferred to each well, resulting in a final compound concentration range of 64 μM-31.3 nM. All plates were incubated at 900 rpm and 70% rH for 18 h at 37° C.
MIC determination. After 18 h of growth, 200 μL was transferred to a 96-well F-bottom plate. The optical density was determined by a plate reader at 600 nm, with 10 s shaking before reading. Triplicate measurements were averaged, and a growth curve was plotted in Microsoft Excel. […]

E. coli (AAC(3)III) = assay: MIC 50, broth micro-dilution, E. coli expressing AAC(3)III; type: cell-based, Escherichia coli
Text: Cloning resistant enzymes. An Escherichia coli codon optimized gene encoding AAC(3)-III (GenBank acc.nr. X55652.1; SEQ ID NO:1), including a promoter and terminator sequence, was synthesized by Integrated DNA Technologies, Belgium. The synthesized gene and pBluescript II KS(+) plasmid were digested using the restriction enzymes SacI and SalI, and purified from a 1% TBE-agarose gel using the illustra Gel Band purification kit. The purified linear plasmid and T4 DNA ligase were used to ligate aac(3)-III under control of the constitutive lipoprotein Ipp promoter and ribosomal RNA rrnC terminator, resulting in pBlue_Ipp_aacC3_rrnC.
as §1, §2, §3, §4, §5, §6
Inoculum preparation. Microorganisms used were all revived from 20% glycerol (40% v/v glycerol in water was diluted with MH2) storage at −80° C. by inoculating them in 5 mL MH2. inoculums of E. coli containing a plasmid were selected for by adding 50 μg/mL KanaA.

[1] = ATCC25922 harboring plasmid encoding APH(3′)IIIa
[2] = ATCC25922 harboring plasmid encoding AAC(3)III
[3] = Escherichia coli, ATCC25922, ATCC25922 harboring plasmid encoding APH(3′)IIIa
[4] = Escherichia coli, ATCC25922, ATCC25922 harboring plasmid encoding AAC(3)III

| Structure (SMILES) | MIC50 (E. coli (APH(3′)IIIa); [1]) [µM] | MIC50 (E. coli (AAC(3)III); [2]) [µM] | MIC50 (E. coli (APH(3′)IIIa); [3]) [µM] | MIC50 (E. coli (AAC(3)III); [4]) [µM] |
| --- | --- | --- | --- | --- |
| NCC[C@H](O)C(=O)N[C@@H]1C[C@H](N)[C@@H](O[C@H]2O[C@H](CN)[C@@H](O)[C@@H](O)[C@H]2O)[C@H](O)[C@H]1O[C@H]1O[C@H](CO)[C@@H](O)[C@H](N)[C@H]1O [ABX3002, 3′Epi-KanaA-AHB] | 16 to 32 | 16 (≈ 9.37 µg/mL) |  |  |
| N=C(N)NC1[C@@H](O)C(OC2[C@@H](F)[C@H](O[C@H]3OC(CN)[C@@H](O)[C@H](O)C3O)C(N)C[C@H]2NC(=O)[C@@H](O)CCN)O[C@H](CO)[C@H]1O (stereo partly drawn) [ABX3003, 3′epi-KanaA-AHB-F-Gua] |  |  | 2 (≈ 1.26 µg/mL) | 1 (≈ 0.63 µg/mL) |
| NCCC(O)C(=O)NC1CC(N)C(OC2OC(CN)C(O)C(O)C2O)C(F)C1OC1OC(CO)C(O)C(N)C1O (stereo not drawn) [ABX3005, 3′Epi-KanaA-AHB-F] | 4 to 8 | 4 (≈ 2.35 µg/mL) |  |  |
| NCCC(O)C(=O)NC1CC(N)C(OC2OC(CN)C(O)C(O)C2N)C(O)C1OC1OC(CO)C(O)C(N)C1O (stereo not drawn) [ABX4001, KanaB-AHB] | 8 to 16 | 1 to 2 |  |  |
| NCC[C@H](O)C(=O)N[C@@H]1CC(N)[C@@H](O[C@H]2OC(CN)[C@@H](O)[C@@H](O)C2N)[C@H](O)C1OC1O[C@H](CO)[C@@H](O)C(N)[C@H]1O (stereo partly drawn) [ABX4002, 3′Epi-KanaB-AHB] | 8 (≈ 4.68 µg/mL) | 4 (≈ 2.34 µg/mL) |  |  |
| NCC[C@H](O)C(=O)N[C@@H]1CC(N)[C@@H](O[C@H]2OC(CN)[C@@H](O)[C@@H](O)C2N)[C@H](F)C1OC1O[C@H](CO)[C@@H](O)C(N)[C@H]1O (stereo partly drawn) [ABX4003, 3′Epi-KanaB-AHB-F] | 8 (≈ 4.69 µg/mL) | 2 (≈ 1.17 µg/mL) |  |  |
| N=C(N)NC1[C@@H](O)C(OC2[C@@H](F)[C@H](O[C@H]3OC(CN)[C@@H](O)[C@H](O)C3N)C(N)C[C@H]2NC(=O)[C@@H](O)CCN)O[C@H](CO)[C@H]1O (stereo partly drawn) [ABX4004, 3′epi-KanaB-AHB-F-Gua] | 1 to 2 | 0.5 (≈ 0.314 µg/mL) |  |  |
| N=C(N)N[C@@H]1[C@@H](O)[C@@H](O[C@@H]2[C@@H](O)[C@H](O[C@H]3O[C@H](CN)[C@@H](O)[C@@H](O)[C@H]3N)[C@@H](N)C[C@H]2NC(=O)[C@@H](O)CCN)O[C@H](CO)[C@H]1O [ABX4005, 3′Epi-KanaB-AHB-Gua] | 8 to 16 | 4 (≈ 2.51 µg/mL) |  |  |
| N=C(N)NC1[C@@H](O)C(OC2[C@@H](F)[C@H](O[C@H]3OC(CN)[C@@H](O)[C@H](O)C3N)C(N)C[C@H]2NC(=O)[C@@H](O)CCN)O[C@H](CO)[C@H]1O (stereo partly drawn) [ABX4006, KanaB-AHB-F-Gua] | 4 to 8 |  |  | 0.25 (≈ 0.157 µg/mL) |
| NCCC(O)C(=O)NC1CC(N)C(OC2OC(CN)C(O)C(O)C2N)C(F)C1OC1OC(CO)C(O)C(N)C1O (stereo not drawn) [ABX4007, KanaB-AHB-F] | 16 (≈ 9.39 µg/mL) | 1 (≈ 0.587 µg/mL) |  |  |
| N=C(N)NC1[C@@H](O)C(OC2[C@@H](O)[C@H](O[C@H]3OC(CN)[C@@H](O)[C@H](O)C3N)C(N)C[C@H]2NC(=O)[C@@H](O)CCN)O[C@H](CO)[C@H]1O (stereo partly drawn) [ABX4009, KanaB-AHB-Gua] | 64 (≈ 40.1 µg/mL) | 1 to 2 |  |  |
| NCC[C@H](O)C(=O)N[C@@H]1CC(N)[C@@H](O[C@H]2OC(CN)[C@@H](O)CC2N)[C@H](O)C1OC1O[C@H](CO)[C@@H](O)C(N)[C@H]1O (stereo partly drawn) [ABX5004, Tobra-AHB] | 4 to 8 | 1 (≈ 0.569 µg/mL) |  |  |
| N=C(N)NC1[C@@H](O)C(OC2[C@@H](O)[C@H](O[C@H]3OC(CN)[C@@H](O)CC3N)C(N)C[C@H]2NC(=O)[C@@H](O)CCN)O[C@H](CO)[C@H]1O (stereo partly drawn) [ABX5005, Tobra-AHB-Gua] | 2 to 4 | 0.5 (≈ 0.305 µg/mL) |  |  |
| N=C(N)NC1C(O)[C@@H](CO)OC(OC2C(F)[C@H](O[C@H]3OC(CN)[C@@H](O)CC3N)C(N)C[C@H]2NC(=O)[C@@H](O)CCN)[C@@H]1O (stereo partly drawn) [ABX5006, Tobra-AHB-F-Gua] |  |  | < 0.25 | 0.25 (≈ 0.153 µg/mL) |
| N=C(NCCN)NC1C(O)[C@@H](CO)OC(OC2C(F)[C@H](O[C@H]3OC(CN)[C@@H](O)CC3N)C(N)C[C@H]2NC(=O)[C@@H](O)CCN)[C@@H]1O (stereo partly drawn) [ABX5020, Tobra-AHB-F-Gua-2-amino-ethyl] |  |  | 0.5 (≈ 0.328 µg/mL) | 0.25 to 0.5 (≈ 0.164 to 0.328 µg/mL) |
| NCC[C@H](O)C(=O)N[C@@H]1CC(N)[C@@H](O[C@H]2OC(CN)[C@@H](O)CC2N)[C@H](F)C1OC1O[C@H](CO)[C@@H](O)C(N)[C@H]1O (stereo partly drawn) [ABX5024, Tobra-AHB-F] | 1 (≈ 0.571 µg/mL) | 1 (≈ 0.571 µg/mL) |  |  |
| CC(C)(C)CCNC(=N)NC1[C@@H](O)C(OC2[C@@H](F)[C@H](O[C@H]3OC(CN)[C@@H](O)CC3N)C(N)C[C@H]2NC(=O)[C@@H](O)CCN)O[C@H](CO)[C@H]1O (stereo partly drawn) [ABX5025, Tobra-AHB-F-Gua 2-tBu-ethyl] |  |  |  | 0.5 (≈ 0.348 µg/mL) |
| N=C(NC[C@@H]1CCCN1)NC1[C@@H](O)C(OC2[C@@H](F)[C@H](O[C@H]3OC(CN)[C@@H](O)CC3N)C(N)C[C@H]2NC(=O)[C@@H](O)CCN)O[C@H](CO)[C@H]1O (stereo partly drawn) [ABX5026, Tobra-AHB-F-Gua (S) pyrrolidine-2-yl-methyl] |  |  | 0.25 (≈ 0.174 µg/mL) | 0.25 (≈ 0.174 µg/mL) |
| N=C(NCC1CC1)NC1[C@@H](O)C(OC2[C@@H](F)[C@H](O[C@H]3OC(CN)[C@@H](O)CC3N)C(N)C[C@H]2NC(=O)[C@@H](O)CCN)O[C@H](CO)[C@H]1O (stereo partly drawn) [ABX5027, Tobra-AHB-F-Gua cyclopropylmethyl] |  |  | 0.25 to 0.5 (≈ 0.167 to 0.333 µg/mL) | 0.25 (≈ 0.167 µg/mL) |
| N=C(NCCO)NC1[C@@H](O)C(OC2[C@@H](F)[C@H](O[C@H]3OC(CN)[C@@H](O)CC3N)C(N)C[C@H]2NC(=O)[C@@H](O)CCN)O[C@H](CO)[C@H]1O (stereo partly drawn) [ABX5029, Tobra-AHB-F-Gua 2-hydroxy-ethyl] |  |  | 0.5 (≈ 0.328 µg/mL) | 0.5 (≈ 0.328 µg/mL) |
